Patent publication US20080318791A1, “Use of Lactate Esters for Improving the Action of Agricultural Pesticides” (Bayer Cropscience Aktiengesellschaft, priority 2005, published 2008)

Key:
[1] = system: primary leaves of barley seedlings; experiment: Retention test of spray liquor on poorly wettable leaf
Protocol: Retention is to be understood as meaning the adherence of spray mists to surfaces, for example plants or plant parts (leaves), after spray application. The retention depends both on the composition of the spray liquor and on the nature of the treated surface. The retention of a spray liquor (aqueous solution of the stated additive) was determined using a poorly wettable leaf in comparison to a reference surface with complete retention. The reported results were obtained using primary leaves of barley seedlings which had been cultivated in a greenhouse (18° C., 80% atmospheric humidity, 16 h of light). Individual cut leaves were subjected to standard treatment in a spray cabin using a track sprayer-flat-jet nozzle: XR 11002 VS; pressure: 3 bar; […]. Weight and leaf area were determined prior to the treatment, and the adhering spray coating was correspondingly determined gravimetrically and normalized to leaf area. A nonwoven-fabric paper cloth serves as reference surface for 100% retention. Per spray liquor variant, at least 5 individual leaves were treated, and the calculated retentions were then averaged. A test series where pure tap water as spray liquor was sprayed onto the barley seedling leaves was carried out as negative control (lowest retention).

[2] = system: enzymatically isolated leaf cuticles of the top face of pear leaves; experiment: Desorption test: influence of additives on tracer mobility in the cuticle (penetration enhancer / plasticizer effect)
Text: Additives which act as penetration enhancers at the level of the cuticle may be referred to below as accelerator additives (cf. Schönherr and Baur, 1994, Pesticide Science 42, 185-208). The feature of accelerator additives is their ability to penetrate from the aqueous spray liquor and/or from the spray covering into the cuticle and thereby to increase the mobility of the active compounds in the cuticle. Other additives such as polyethylene glycol, in contrast, only act on the spray covering (via the liquid phase) or act only as wetting agents, such as, for example, sodium dodecylsulphate.
This test determines the influence of additives on the penetration properties of other substances at the level of the cuticle. The mobility of a test substance in the cuticle is measured with and without an additive, by way of a desorption method. The method is published in detail in the literature (Baur et al., 1997, Pesticide Science, 51, 131-152) and only the principles and any deviations are described below.
As a test substance with the function of a tracer a selection was made here of a radiolabelled weak organic acid. Plant material used comprises the enzymatically isolated leaf cuticles of the top face of pear leaves from outdoor trees. […] This inner side readily takes up the small radioactive amount of the tracer in the undissociated acid form. […]

Question: For `CCCCC(CC)COC(=O)C(C)O` (centres unmarked) [2-Ethylhexyl lactate], which “Effect on retention (in words)” value ([1]; 0.3 g/l) is on record?
Answer: The value was “increased the retention considerably”.

Question: What about the Retention ([1]; additive 0.3 g/l in water, 100% = nonwoven-fabric paper cloth) of the same compound?
Answer: The Retention was 60.6%.

Question: And the Retention ([1]; additive 3 g/l + 0.2 g/l Pluronic PE 10500 emulsifier)?
Answer: The Retention was 61%.

Question: And the “Effectiveness as cuticle plasticizer (in words)” value ([2]; Table 1)?
Answer: The value was “very effective as a plasticizer”.

Question: And the “Mean effect (ratio of desorption slopes with additive to without additive)” value ([2]; additive concentration 1 g/l, radiolabelled weak organic acid tracer)?
Answer: Its value is 45.
